From publication PMC4051630, “A Comparison of Protein Kinases Inhibitor Screening Methods Using Both Enzymatic Activity and Binding Affinity Determination” (PLoS ONE, 2014)

Columns and labels:
Experiment in all cases: Differential Scanning Fluorimetry (DSF) Tm shift
Type in all cases: binding
AKT3 Catalytic Domain = target: T1, AKT3 Catalytic Domain (Homo sapiens, UniProt Q9Y243); settings: 2 µM protein, 10 µM inhibitor, average of 3 experiments, each in duplicate
T1 construct: AKT3 (Q9Y243); CD; His-tag; made in house; host or cells: Escherichia coli

CDK2 + Cyclin A = target: T2, CDK2 + Cyclin A (Homo sapiens, UniProt P24941); settings: CDK2 + Cyclin A; 2 µM protein, 10 µM inhibitor; average of 3 experiments, each in duplicate
T2 construct: CDK2 (P24941); 1–299; His-tag; made in house; host or cells: Escherichia coli

CDK2 + Cyclin E = target: T3, CDK2 + Cyclin E (Homo sapiens, UniProt P24941); settings: CDK2 + Cyclin E; 2 µM protein, 10 µM inhibitor; average of 3 experiments, each in duplicate
T3 construct: CDK2 (P24941); 1–299; His-tag; made in house; host or cells: Escherichia coli

CHK2 Catalytic Domain = target: T4, CHK2 Catalytic Domain (Homo sapiens, UniProt O96017); settings: 2 µM protein, 10 µM inhibitor, average of 3 experiments, each in duplicate
T4 construct: For all of them, we expressed and purified the catalytic domain separately; His-tag; made in house; host or cells: Escherichia coli

DMPK Catalytic Domain = target: T5, DMPK Catalytic Domain (Homo sapiens, UniProt Q09013); settings: 2 µM protein, 10 µM inhibitor, average of 3 experiments, each in duplicate
T5 construct: For all of them, we expressed and purified the catalytic domain separately; His-tag; made in house; host or cells: Escherichia coli
T5 sequence (Q09013 71-339 limits assumed): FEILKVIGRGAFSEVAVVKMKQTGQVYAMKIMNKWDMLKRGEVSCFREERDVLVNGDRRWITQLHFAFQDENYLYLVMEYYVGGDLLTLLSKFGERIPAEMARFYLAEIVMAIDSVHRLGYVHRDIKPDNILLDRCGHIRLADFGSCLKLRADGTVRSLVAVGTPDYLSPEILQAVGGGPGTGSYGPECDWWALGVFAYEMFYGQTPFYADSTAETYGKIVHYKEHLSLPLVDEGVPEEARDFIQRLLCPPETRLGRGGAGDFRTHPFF

FAK2 Catalytic Domain = target: T6, FAK2 Catalytic Domain (Homo sapiens, UniProt Q14289); settings: 2 µM protein, 10 µM inhibitor, average of 3 experiments, each in duplicate
T6 construct: For all of them, we expressed and purified the catalytic domain separately; His-tag; made in house; host or cells: Escherichia coli

FES Catalytic Domain+SH2 = target: T7, FES Catalytic Domain+SH2 (Homo sapiens, UniProt P07332); settings: 2 µM protein, 10 µM inhibitor, average of 3 experiments, each in duplicate
T7 construct: for 8, we also made a longer version containing one or more additional domains; His-tag; made in house; host or cells: Escherichia coli

FES Catalytic Domain = target: T8, FES Catalytic Domain (Homo sapiens, UniProt P07332); settings: 2 µM protein, 10 µM inhibitor, average of 3 experiments, each in duplicate
T8 construct: For all of them, we expressed and purified the catalytic domain separately; His-tag; made in house; host or cells: Escherichia coli

[1] = target: T9, PAK4 Catalytic Domain+PBD (Homo sapiens, UniProt O96013); settings: 2 µM protein, 10 µM inhibitor, average of 3 experiments, each in duplicate
T9 construct: for 8, we also made a longer version containing one or more additional domains; His-tag; made in house; host or cells: Escherichia coli

PAK4 Catalytic Domain = target: T10, PAK4 Catalytic Domain (Homo sapiens, UniProt O96013); settings: 2 µM protein, 10 µM inhibitor, average of 3 experiments, each in duplicate
T10 construct: For all of them, we expressed and purified the catalytic domain separately; His-tag; made in house; host or cells: Escherichia coli

PAK7 Catalytic Domain = target: T11, PAK7 Catalytic Domain (Homo sapiens, UniProt Q9P286); settings: 2 µM protein, 10 µM inhibitor, average of 3 experiments, each in duplicate
T11 construct: For all of them, we expressed and purified the catalytic domain separately; His-tag; made in house; host or cells: Escherichia coli

[2] = target: SRC Catalytic Domain+SH2+SH3 (Homo sapiens, UniProt P12931); settings: 2 µM protein, 10 µM inhibitor, average of 3 experiments, each in duplicate
[3] = target: T12, STK3 Catalytic domain+SARAH (Homo sapiens, UniProt Q13188); settings: 2 µM protein, 10 µM inhibitor, average of 3 experiments, each in duplicate
T12 construct: for 8, we also made a longer version containing one or more additional domains; His-tag; made in house; host or cells: Escherichia coli
T12 sequence (Q13188 1-491): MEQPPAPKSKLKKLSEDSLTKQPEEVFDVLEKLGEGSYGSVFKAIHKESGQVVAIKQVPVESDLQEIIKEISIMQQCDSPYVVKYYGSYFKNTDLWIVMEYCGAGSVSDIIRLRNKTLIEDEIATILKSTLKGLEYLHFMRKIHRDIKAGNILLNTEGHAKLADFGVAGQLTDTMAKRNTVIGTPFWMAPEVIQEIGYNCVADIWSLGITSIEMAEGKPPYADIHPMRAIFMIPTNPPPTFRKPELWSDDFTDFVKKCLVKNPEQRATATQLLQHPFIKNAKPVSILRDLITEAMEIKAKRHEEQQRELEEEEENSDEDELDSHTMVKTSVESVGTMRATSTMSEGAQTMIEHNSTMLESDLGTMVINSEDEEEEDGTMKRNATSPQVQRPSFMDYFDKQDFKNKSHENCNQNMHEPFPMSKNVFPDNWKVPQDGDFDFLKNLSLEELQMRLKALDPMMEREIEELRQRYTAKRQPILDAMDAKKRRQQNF

STK3 Catalytic Domain = target: T13, STK3 Catalytic Domain (Homo sapiens, UniProt Q13188); settings: 2 µM protein, 10 µM inhibitor, average of 3 experiments, each in duplicate
T13 construct: For all of them, we expressed and purified the catalytic domain separately; His-tag; made in house; host or cells: Escherichia coli
T13 sequence (Q13188 27-278 limits assumed): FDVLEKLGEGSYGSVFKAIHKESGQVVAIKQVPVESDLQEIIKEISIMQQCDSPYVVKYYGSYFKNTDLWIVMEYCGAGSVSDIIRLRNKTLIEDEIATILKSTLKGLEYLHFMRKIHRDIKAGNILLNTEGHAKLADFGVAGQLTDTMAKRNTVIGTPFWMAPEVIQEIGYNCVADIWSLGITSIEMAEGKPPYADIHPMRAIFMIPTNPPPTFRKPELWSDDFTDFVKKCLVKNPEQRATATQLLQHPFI

SRC Catalytic Domain = SRC Catalytic Domain (Homo sapiens, UniProt P12931); set-up: For all of them, we expressed and purified the catalytic domain separately; His-tag; made in house; host or cells: Escherichia coli; settings: 2 µM protein, 10 µM inhibitor, average of 3 experiments, each in duplicate

T9 sequence (O96013 whole entry, the tested form may be a part): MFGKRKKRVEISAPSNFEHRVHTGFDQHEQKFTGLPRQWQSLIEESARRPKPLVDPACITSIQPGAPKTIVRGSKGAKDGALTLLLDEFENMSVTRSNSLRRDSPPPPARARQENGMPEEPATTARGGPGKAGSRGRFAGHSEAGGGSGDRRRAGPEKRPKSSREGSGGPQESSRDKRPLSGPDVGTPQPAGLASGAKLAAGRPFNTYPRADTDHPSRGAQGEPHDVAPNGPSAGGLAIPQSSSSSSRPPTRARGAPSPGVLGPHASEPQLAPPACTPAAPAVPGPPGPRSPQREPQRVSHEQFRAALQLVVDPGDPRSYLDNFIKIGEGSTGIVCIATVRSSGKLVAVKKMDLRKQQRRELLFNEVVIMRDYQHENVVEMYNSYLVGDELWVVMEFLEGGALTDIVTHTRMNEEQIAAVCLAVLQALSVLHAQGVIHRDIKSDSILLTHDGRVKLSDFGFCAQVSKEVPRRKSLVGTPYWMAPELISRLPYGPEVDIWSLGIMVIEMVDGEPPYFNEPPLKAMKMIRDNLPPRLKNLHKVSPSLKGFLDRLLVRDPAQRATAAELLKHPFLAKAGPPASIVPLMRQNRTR
T4 sequence (O96017 220-486 limits assumed): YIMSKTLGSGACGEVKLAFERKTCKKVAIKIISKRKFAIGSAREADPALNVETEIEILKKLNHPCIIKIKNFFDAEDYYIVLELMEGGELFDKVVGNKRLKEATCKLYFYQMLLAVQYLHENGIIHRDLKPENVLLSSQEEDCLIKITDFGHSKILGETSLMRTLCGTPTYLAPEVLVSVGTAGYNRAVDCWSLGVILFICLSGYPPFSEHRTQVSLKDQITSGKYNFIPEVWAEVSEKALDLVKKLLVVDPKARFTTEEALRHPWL
T1 sequence (Q9Y243 122-479): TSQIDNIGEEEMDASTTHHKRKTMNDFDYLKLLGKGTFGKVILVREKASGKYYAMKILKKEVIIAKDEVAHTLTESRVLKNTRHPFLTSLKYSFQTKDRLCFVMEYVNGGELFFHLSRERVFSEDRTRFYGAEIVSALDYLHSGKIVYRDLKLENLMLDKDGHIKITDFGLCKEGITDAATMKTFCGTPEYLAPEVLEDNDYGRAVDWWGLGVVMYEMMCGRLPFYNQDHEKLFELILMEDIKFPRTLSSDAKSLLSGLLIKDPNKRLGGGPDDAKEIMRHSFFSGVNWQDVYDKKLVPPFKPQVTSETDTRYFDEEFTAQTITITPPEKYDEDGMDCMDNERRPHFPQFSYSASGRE
T8 sequence (P07332 561-822 limits assumed): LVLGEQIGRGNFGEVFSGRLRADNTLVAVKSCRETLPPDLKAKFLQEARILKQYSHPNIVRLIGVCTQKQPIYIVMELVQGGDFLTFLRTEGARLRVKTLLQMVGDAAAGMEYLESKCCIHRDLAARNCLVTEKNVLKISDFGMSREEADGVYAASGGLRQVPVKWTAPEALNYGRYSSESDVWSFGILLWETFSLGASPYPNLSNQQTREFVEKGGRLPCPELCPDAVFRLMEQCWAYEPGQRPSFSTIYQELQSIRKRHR
T11 sequence (Q9P286 449-700 limits assumed): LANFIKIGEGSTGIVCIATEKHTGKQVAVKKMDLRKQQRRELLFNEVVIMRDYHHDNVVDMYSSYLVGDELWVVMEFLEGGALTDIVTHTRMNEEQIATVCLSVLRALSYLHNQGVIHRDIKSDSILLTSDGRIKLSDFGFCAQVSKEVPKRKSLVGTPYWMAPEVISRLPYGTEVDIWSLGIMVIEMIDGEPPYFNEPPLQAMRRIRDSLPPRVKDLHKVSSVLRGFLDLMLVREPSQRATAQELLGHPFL
T10 sequence (O96013 321-572 limits assumed): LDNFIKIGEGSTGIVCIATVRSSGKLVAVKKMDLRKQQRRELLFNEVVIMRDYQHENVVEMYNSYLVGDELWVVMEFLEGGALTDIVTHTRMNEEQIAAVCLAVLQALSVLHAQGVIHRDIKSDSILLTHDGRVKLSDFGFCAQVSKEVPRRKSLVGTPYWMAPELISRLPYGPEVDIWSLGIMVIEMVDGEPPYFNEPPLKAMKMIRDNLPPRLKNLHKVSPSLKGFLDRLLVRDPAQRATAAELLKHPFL
T6 sequence (Q14289 425-683 limits assumed): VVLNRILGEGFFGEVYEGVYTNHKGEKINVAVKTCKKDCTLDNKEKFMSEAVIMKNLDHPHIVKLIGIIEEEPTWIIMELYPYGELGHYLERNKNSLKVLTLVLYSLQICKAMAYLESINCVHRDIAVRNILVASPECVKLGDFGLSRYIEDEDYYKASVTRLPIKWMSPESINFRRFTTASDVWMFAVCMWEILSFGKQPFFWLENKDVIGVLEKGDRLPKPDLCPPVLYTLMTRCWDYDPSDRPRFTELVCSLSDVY
T7 sequence (P07332 448-822 limits assumed): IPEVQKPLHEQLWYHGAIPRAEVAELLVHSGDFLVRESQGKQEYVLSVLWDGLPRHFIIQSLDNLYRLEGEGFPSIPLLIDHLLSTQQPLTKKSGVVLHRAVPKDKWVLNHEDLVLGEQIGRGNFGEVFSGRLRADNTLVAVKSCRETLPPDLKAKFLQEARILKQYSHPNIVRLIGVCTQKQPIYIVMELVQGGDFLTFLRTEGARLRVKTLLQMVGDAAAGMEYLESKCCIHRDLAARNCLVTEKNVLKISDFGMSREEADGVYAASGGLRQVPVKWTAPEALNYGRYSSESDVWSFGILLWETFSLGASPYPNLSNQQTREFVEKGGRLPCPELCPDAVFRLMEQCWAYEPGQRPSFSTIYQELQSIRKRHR

Compound | Melting temperature (Tm) shift (AKT3 Catalytic Domain) | Melting temperature (Tm) shift (CDK2 + Cyclin A) | Melting temperature (Tm) shift (CDK2 + Cyclin E) | Melting temperature (Tm) shift (CHK2 Catalytic Domain) | Melting temperature (Tm) shift (DMPK Catalytic Domain) | Melting temperature (Tm) shift (FAK2 Catalytic Domain) | Melting temperature (Tm) shift (FES Catalytic Domain+SH2) | Melting temperature (Tm) shift (FES Catalytic Domain) | Melting temperature (Tm) shift [1] | Melting temperature (Tm) shift (PAK4 Catalytic Domain) | Melting temperature (Tm) shift (PAK7 Catalytic Domain) | Melting temperature (Tm) shift [2] | Melting temperature (Tm) shift [3] | Melting temperature (Tm) shift (STK3 Catalytic Domain) | Melting temperature (Tm) shift (SRC Catalytic Domain)
O=C1Cc2c([nH]c3ccc(Br)cc23)-c2ccccc2N1 [Kenpaullone] | 0.0 degrees Celcius | 0.4 degrees Celcius | 0.3 degrees Celcius | 3.4 degrees Celcius | 1.9 degrees Celcius | 0.3 degrees Celcius | 0.0 degrees Celcius | 0.4 degrees Celcius | 3.6 degrees Celcius | 1.4 degrees Celcius | 0.7 degrees Celcius | 0.2 degrees Celcius | 1.5 degrees Celcius | 0.7 degrees Celcius | 0.4 degrees Celcius
CC(C)n1cnc2c(Nc3cccc(Cl)c3)nc(NCCO)nc21 [Compound 52] | 0.0 degrees Celcius | 2.3 degrees Celcius | 1.7 degrees Celcius | 1.1 degrees Celcius | 0.0 degrees Celcius | 0.9 degrees Celcius | 0.6 degrees Celcius | 2.3 degrees Celcius | 5.0 degrees Celcius | 2.0 degrees Celcius | 1.8 degrees Celcius | 0.8 degrees Celcius | 0.7 degrees Celcius | 1.2 degrees Celcius | 0.9 degrees Celcius
CCn1cnc2c(Nc3cccc(Cl)c3)nc(N[C@H]3CCCC[C@H]3N)nc21 [Cdk1 Inhibitor, CGP74514A] | 0.0 degrees Celcius | 4.4 degrees Celcius | 3.7 degrees Celcius | 1.8 degrees Celcius | 1.4 degrees Celcius | 1.9 degrees Celcius | 0.7 degrees Celcius | 1.6 degrees Celcius | 8.1 degrees Celcius | 5.6 degrees Celcius | 5.4 degrees Celcius | 1.3 degrees Celcius | 1.2 degrees Celcius | 1.3 degrees Celcius | 1.2 degrees Celcius
Scytonemin [Scytonemin, Lyngbya sp.] | 0.0 degrees Celcius | 0.3 degrees Celcius | 0.8 degrees Celcius |  | 0.3 degrees Celcius | 0.2 degrees Celcius | 0.2 degrees Celcius |  | 0.7 degrees Celcius | 0.6 degrees Celcius | 0.0 degrees Celcius | 0.3 degrees Celcius | 0.4 degrees Celcius | 0.5 degrees Celcius | 0.0 degrees Celcius
CCCCn1c2ccc(O)cc2c2c3c(c(-c4ccccc4Cl)cc21)C(=O)NC3=O [Wee1 Inhibitor II] | 0.1 degrees Celcius | 0.1 degrees Celcius | 0.8 degrees Celcius | 0.1 degrees Celcius | 0.6 degrees Celcius | 0.9 degrees Celcius | 0.2 degrees Celcius | 0.0 degrees Celcius | 1.0 degrees Celcius | 0.5 degrees Celcius | 0.3 degrees Celcius | 0.2 degrees Celcius | 1.2 degrees Celcius |  | 0.3 degrees Celcius
